Data taken from patent publication US11452723B2, “Combination dosage form of a mu opioid receptor antagonist and an opioid agent” (THERAVANCE BIOPHARMA R&D IP, LLC, priority 2015, dated 2022).
Counter-ions that a name gives are not always drawn.

Key:
[1] = as described in U.S. Pat. No. 7,943,772; cited from earlier work
[2] = Excipient compatibility study: chemical stability of films at 40° C./88% RH by HPLC; type: physicochemical; conditions: T = 0; no coating material (ratio N/A)
Method: The compatibility of axelopran with four compositions of commercial coating materials was studied as a function of ratio of coating material to axelopran. Mixtures of axelopran sulfate and the materials of Table 15 were dried at 40° C. in weighing boats to form films. Chemical stability of the films stored at accelerated conditions of 40° C. and 88% relative humidity for 2 weeks were analyzed by HPLC.

[3] = biological target: T1, mu opioid receptor (Homo sapiens, UniProt P35372); conditions: non-cancer pain patients on a stable opioid regimen; cited from earlier work
T1 construct: host or cells: patients (endogenous peripheral/gastrointestinal receptors)
T1 sequence (P35372 whole entry): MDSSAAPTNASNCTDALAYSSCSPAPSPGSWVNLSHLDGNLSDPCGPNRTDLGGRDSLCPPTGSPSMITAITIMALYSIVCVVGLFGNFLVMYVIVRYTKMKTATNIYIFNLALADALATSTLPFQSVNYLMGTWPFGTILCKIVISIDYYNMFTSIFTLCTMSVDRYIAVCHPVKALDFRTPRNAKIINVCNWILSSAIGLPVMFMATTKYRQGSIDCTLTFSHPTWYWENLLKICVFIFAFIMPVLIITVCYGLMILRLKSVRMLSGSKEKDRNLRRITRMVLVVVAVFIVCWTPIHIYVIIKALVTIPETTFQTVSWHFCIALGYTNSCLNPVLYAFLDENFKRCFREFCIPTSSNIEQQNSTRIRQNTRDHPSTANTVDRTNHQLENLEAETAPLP

Compound | stability of solid form (in words) [1] | Axelopran Assay [2] [% Area] | amelioration of symptoms of opioid induced constipation (in words) [3]
NC(=O)c1cccc([C@H]2C[C@H]3CC[C@@H](C2)N3CCN(CC2CCCCC2)C(=O)[C@@H](O)CO)c1 [axelopran sulfate] | forms a stable crystalline form | – | –
NC(=O)c1cccc([C@H]2C[C@H]3CC[C@@H](C2)N3CCN(CC2CCCCC2)C(=O)[C@@H](O)CO)c1 [axelopran, 3-((1R,3r,5S)-8-(2-((cyclohexylmethyl)((2S)-2,3-dihydroxypropanoyl)amino)ethyl)-8-azabicyclo[3.2.1]octan-3-yl)benzamide] | – | 99.70 | ameliorate the symptoms of OIC in non-cancer pain patients on a stable opioid regimen without compromising analgesia
NC(=O)c1cccc([C@H]2C[C@H]3CC[C@@H](C2)N3CCN(CC2CCCCC2)C(=O)[C@@H](O)CO)c1 [amorphous axelopran] | not sufficiently stable for use in a drug product | – | –
